Experimental data from ChEMBL document CHEMBL1759835, “Biotransformation of natural compounds. Oxido-reduction of Sch-642305 by Aspergillus ochraceus ATCC 1009” (Bioorg Med Chem Lett, 2011).

How the values were obtained:
Micrococcus luteus = assay: Antibacterial activity against Micrococcus luteus ATCC 10240 at 100 ug by disk inhibition zone method relative to chloramphenicol; type: functional; parameters: scale not given: the % may be the effect or the level left
Bacillus subtilis = assay: Antibacterial activity against Bacillus subtilis ATCC 6633 at 100 ug by disk inhibition zone method relative to gentamycin; type: functional; parameters: scale not given: the % may be the effect or the level left
Escherichia coli = assay: Antibacterial activity against Escherichia coli ATCC 25922 at 100 ug by disk inhibition zone method relative to chloramphenicol; type: functional; parameters: scale not given: the % may be the effect or the level left
K562 = assay: Cytotoxicity against human K562 cells assessed as inhibition of cell proliferation after 72 hrs by MTS assay; type: functional, cell-based; details: K562, 72 h
MDA-MB-231 = assay: Cytotoxicity against human MDA-MB-231 cells assessed as inhibition of cell proliferation after 72 hrs by MTS assay; type: functional, cell-based; details: MDA-MB-231, 72 h

`C[C@H]1CCCC[C@@H]2[C@@H](CC(=O)O1)[C@@H](O)CC[C@@H]2O` was tested, and the Activity (Micrococcus luteus) was 0%, the Activity (Bacillus subtilis) was 0% and the Activity (Escherichia coli) was 0%. It also gave an IC50 (K562) of 4 nM and an IC50 (MDA-MB-231) of 40 nM.

With `C[C@H]1CCCC[C@H]2C(=O)CC[C@H](O)[C@@H]2CC(=O)O1` the Activity (Micrococcus luteus) was 0%, the Activity (Bacillus subtilis) was 0% and the Activity (Escherichia coli) was 50%. For the same molecule, the IC50 (K562) was 200 nM and the IC50 (MDA-MB-231) was 400 nM.

Molecule `C[C@H]1CCCC[C@H]2C(=O)C[C@H](O)[C@H](O)[C@@H]2CC(=O)O1` has an Activity (Micrococcus luteus) of 0%, an Activity (Bacillus subtilis) of 62.5% and an Activity (Escherichia coli) of 0%. The IC50 (K562) was 20 nM and the IC50 (MDA-MB-231) was 12 nM.

In the case of `C[C@H]1CCCC[C@H]2C(=O)C=C[C@H](O)[C@@H]2CC(=O)O1`, the Activity (Micrococcus luteus) is reported as 38%, the Activity (Bacillus subtilis) is reported as 100% and the Activity (Escherichia coli) is reported as 0%. For the same molecule, the IC50 (K562) was 20 nM and the IC50 (MDA-MB-231) was 20 nM.
